Source: patent publication US4005213A, “2,5-Substituted-1,3,4-thiadiazoles as fungicides” (Schering Aktiengesellschaft, priority 1968, dated 1977)

Assays:
Rhizoctonia solani [1] = experiment: Pea test in soil inoculated with Rhizoctonia solani (Example 3); assay type: in vivo; conditions: for Root evaluation (1-4): 3 weeks
From the text: Steamed compost soil was inoculated with mycelium of Rhizoctonia solani. After homogeneous mixture of the products with the infested soil, the products were present in the form of 20% powder preparations, the seeding of 25 grains of marrow peas of the variety Miracle of Kelvedon per concentration was effected without waiting period in clay dishes holding 1 liter of soil. The table lists the number of germinated sound peas, the weight of the fresh plant, and a root evaluation after a cultivation period of 3 weeks at 22°-25° C.

Damping-off Fungi = experiment: Cotton seed disinfection in normal compost soil (Example 6); assay type: in vivo; conditions: 100 mg active ingr. per kg of seed, 15 days, 22°-25° C.
Experimental: Cotton seeds disinfected with 10% formulations were seeded in normal compost soil (Damping-off Fungi), 25 grains per concentration. After a cultivation time of 15 days at 22°-25° C., the number of germinated sound cotton seedlings and their weight as fresh plants were determined.

Aspergillus niger = experiment: Agar test, Aspergillus niger (Example 7); assay type: cell-based; conditions: 10 ppm in malt extract agar, 5 days at 22° C.; control 100
Experimental: (§1) The fungicidal action of the agents according to the invention was tested in artificial nutrient media against plant-pathogenic fungi in Petri dishes (agar test). The procedure was to sterilize the medium consisting of 2% malt extract and 1.5% agar-agar powder. Before the solidification of the medium, the active substances were added to it, mixing thoroughly, so that the medium received 10 parts of active substance per million (ppm). After the solidification of the medium, the latter was inoculated with a platinum dropper which contained 100 spores each of the fungi to be tested, and after 5 days at 22° C., an evaluation was made by measuring the diameter of the colonies in mm.

Stemphylium ilicis = experiment: Agar test, Stemphylium ilicis (Example 7); assay type: cell-based; conditions: 10 ppm in malt extract agar, 5 days at 22° C.; control 100
Experimental: as §1

Pythium ultimum [2] = experiment: Limit concentration of soil-fungicidal effectiveness, Pythium ultimum infested soil, peas (Example 1); assay type: in vivo; conditions: Globisporangium ultimum, 20 to 23 days, 22°-25° C., germination at least 90% vs steamed soil
Experimental: (§2) Limit concentrations of the soil-fungicidal effectiveness at homogeneous mixture of the products with the infested soil. Basic condition in the evaluation are a sound root formation without fungus necroses and germination of the seed of at least 90% compared with the result obtained in steamed soil. Per concentration there were seeded 25 grains of peas of the variety "Miracle of Kelvedon" (marrow pea) without a waiting period. the cultivation time in the tests was 20 to 23 days at a temperature of 22°-25° C. Four commercial products were included in the test series.
Pythium ultimum: Steamed compost soil was inoculated with mycelium of Pythium ultimum

Pythium ultimum [3] = experiment: Pea test in soil inoculated with Pythium ultimum (Example 2); assay type: in vivo; set-up: key to Root evaluation (1-4): 4 = white roots, no necroses … 1 = severe necroses, roots rotted; conditions: for Root evaluation (1-4): 3 weeks; for Number of sound peas after 3 wks.: 25 grains seeded
Experimental: Steamed compost soil was inoculated with mycelium of Pythium ultimum. […] The following table lists the number of germinated sound peas, the weight of the fresh plant, and a root evaluation after a cultivation period of 3 weeks at 22°-25° C.
4 = white roots, without fungus necroses
3 = white roots, slight fungus necroses
2 = brown roots, more intense fungus necroses
1 = severe fungus necroses, roots rotted

Meloidogyne incognita = experiment: Nematocidal action against root gall nematodes, cucumber (Example 8); assay type: in vivo; conditions: reduction of attack, 30 days
Experimental: The products as 20% powder preparations were homogeneously admixed with a compost soil heavily infested by root gall nematodes. Without a waiting period, 20 cucumber seeds per concentration were seeded. After a cultivation time of 30 days at a temperature of 23°-25° C., the nematocidal action was evaluated by counting the root galls formed in the waterbath. The following table states the reduction of attack in percent. In the control, an average of 90 root galls per seedling had formed.

Pythium ultimum [4] = experiment: Fungistatic and fungicidal action on Pythium ultimum of preparations with varying active ingredient percentages (Example 4); assay type: in vivo; conditions: for Number of sound peas after 3 wks.: 25 grains seeded
From the text: Comparison of the fungistatic and fungicidal action on Pythium ultimum when using preparations with varying active ingredient percentages on siliceous clay. Steamed compost soil was inoculated with mycelium of Pythium ultimum. After forming a homogeneous mixture of the products with the infested soil, […], the seeding of 25 grains of marrow peas of the variety Miracle of Kelvedon per concentration in clay dishes holding 1 liter of soil followed without a waiting period. In the table is stated the number of germinated sound peas, the weight of the fresh plant, and a root evaluation after a cultivation period of 3 weeks at 22°-25° C.

Pyrenochaeta lycopersici = experiment: Control of Pyrenochaeta lycopersici, corky root disease of the tomato, open field (Example 9); assay type: in vivo; conditions: for Weight of single tomato (% of untreated): 0 g = 100%; for Tomatoes per plant / Weight of single tomato / Yield per plant: 10% granulate
From the text: Control of Pyrenochaeta lycopersici, corky root disease of the tomato.
On a naturally infested open field area, 2-dichloromethyl-5-methylsulfonyl-1,3,4-thiadiazole was scattered as a 10% granulate formulation and hoed in 20 cm deep. […] After a reaction period of 3 weeks, tomato plants of the variety "Ronald-M" which were 8 weeks old were set out at a distance from each other of 50 × 70 cm. The harvest results indicated in the table are average values of 40 plants per lot and refer to harvested ripe tomatoes.

[5] = acute oral toxicity in rats; conditions: rat, in vivo
Rhizoctonia solani [6] = experiment: Limit concentration of soil-fungicidal effectiveness, Rhizoctonia solani infested soil, peas (Example 1); assay type: in vivo; conditions: 20 to 23 days, 22°-25° C., germination at least 90% vs steamed soil
Experimental: as §2
Rhizoctonia solani: Steamed compost soil was inoculated with mycelium of Rhizoctoniz solani.

Helminthosporium sativum = experiment: Agar test, Helminthosporium sativum (Example 7); assay type: cell-based; conditions: 10 ppm in malt extract agar, 5 days at 22° C.; control 100
Experimental: as §1

[7] = test system: Colletotrichum gloeosporioides; experiment: Agar test, Colletotrichum gloeosporioides (Example 7); assay type: cell-based; conditions: 10 ppm in malt extract agar, 5 days at 22° C.; control 100
Experimental: as §1

Botrytis cinerea = experiment: Agar test, Botrytis cinerea (Example 7); assay type: cell-based; conditions: 10 ppm in malt extract agar, 5 days at 22° C.; control 100
Experimental: as §1

[8] = 20 mg active ingr. per liter of soil
[9] = 30 mg active ingr. per liter of soil
[10] = 10 mg active ingr. per liter of soil
[11] = 40 mg active substance per liter of soil
[12] = 60 mg active substance per liter of soil
[13] = 5% formulation, 6 mg active ingr. per liter of soil
[14] = 5% formulation, 10 mg active ingr. per liter of soil
[15] = 10% formulation, 10 mg active ingr. per liter of soil
[16] = 20% formulation, 6 mg active ingr. per liter of soil
[17] = 10 g active ingr. per square meter
[18] = 20 g active ingr. per square meter
[19] = 200 mg active ingr. per liter of soil

Structure (SMILES): C[S+]([O-])c1nnc(C(Cl)Cl)s1 (centres unmarked) [Compound 3, 2-dichloromethyl-5-methylsulfinyl-1,3,4-thiadiazole]
- Number of sound peas after 3 wks. (Rhizoctonia solani [1]; 10 mg active ingr. per liter of soil, 25 grains seeded): 0
- Root evaluation (1-4) (Rhizoctonia solani [1]; [8]): 1
- Root evaluation (1-4) (Rhizoctonia solani [1]; [9]): 4
- Sound plants in % (Damping-off Fungi): 100%
- diameter of the colonies, Aspergillus niger (Aspergillus niger): 50 mm
- diameter of the colonies, Stemphylium ilicis (Stemphylium ilicis): 0 mm
- minimal effective concentration (Pythium ultimum [2]): 10 µg/mL
- Root evaluation (1-4) (Pythium ultimum [3]; [10]): 4
- Root evaluation (1-4) (Pythium ultimum [3]; [8]): 4
- Root evaluation (1-4) (Pythium ultimum [3]; [9]): 4
- Nematocidal action in % (Meloidogyne incognita) (Meloidogyne incognita; [11]): 100%
- Nematocidal action in % (Meloidogyne incognita) (Meloidogyne incognita; [12]): 100%

Structure (SMILES): CS(=O)(=O)c1nnc(C(Cl)Cl)s1 [Compound 17, 2-dichloromethyl-5-methylsulfonyl-1,3,4-thiadiazole]
- Root evaluation (1-4) (Rhizoctonia solani [1]; [8]): 4
- Root evaluation (1-4) (Rhizoctonia solani [1]; [9]): 4
- Sound plants in % (Damping-off Fungi): 100%
- diameter of the colonies, Aspergillus niger (Aspergillus niger): 0 mm
- diameter of the colonies, Stemphylium ilicis (Stemphylium ilicis): 0 mm
- Weight of fresh plant (Pythium ultimum [4]; [13]): 9 g
- Number of sound peas after 3 wks. (Pythium ultimum [4]; [13]): 12
- Weight of fresh plant (Pythium ultimum [4]; [14]): 20 g
- Number of sound peas after 3 wks. (Pythium ultimum [4]; [14]): 24
- Weight of fresh plant (Pythium ultimum [4]; 10% formulation, 6 mg active ingr. per liter of soil): 15 g
- Weight of fresh plant (Pythium ultimum [4]; [15]): 24 g
- Number of sound peas after 3 wks. (Pythium ultimum [4]; [15]): 22
- Weight of fresh plant (Pythium ultimum [4]; [16]): 17 g
- Number of sound peas after 3 wks. (Pythium ultimum [4]; [16]): 22
- Weight of fresh plant (Pythium ultimum [4]; 20% formulation, 10 mg active ingr. per liter of soil): 16 g
- minimal effective concentration (Pythium ultimum [2]): 10 µg/mL
- Root evaluation (1-4) (Pythium ultimum [3]; [10]): 4
- Root evaluation (1-4) (Pythium ultimum [3]; [8]): 4
- Number of sound peas after 3 wks. (Pythium ultimum [3]; [8]): 24
- Root evaluation (1-4) (Pythium ultimum [3]; [9]): 4
- Number of sound peas after 3 wks. (Pythium ultimum [3]; [9]): 24
- Nematocidal action in % (Meloidogyne incognita) (Meloidogyne incognita; [11]): 90%
- Nematocidal action in % (Meloidogyne incognita) (Meloidogyne incognita; [12]): 94%
- Weight of single tomato (% of untreated) (Pyrenochaeta lycopersici; [17]): 110%
- Tomatoes per plant (Pyrenochaeta lycopersici; [17]): 27
- Weight of single tomato (Pyrenochaeta lycopersici; [17]): 66 g
- Yield per plant (Pyrenochaeta lycopersici; [17]): 1774 g
- Weight of single tomato (% of untreated) (Pyrenochaeta lycopersici; [18]): 130%
- Tomatoes per plant (Pyrenochaeta lycopersici; [18]): 28
- Weight of single tomato (Pyrenochaeta lycopersici; [18]): 78 g
- Yield per plant (Pyrenochaeta lycopersici; [18]): 2209 g

Structure (SMILES): CS(=O)(=O)c1nnc(C(Cl)(Cl)Cl)s1 [Compound 21, 2-trichloromethyl-5-methylsulfonyl-1,3,4-thiadiazole]
- Root evaluation (1-4) (Rhizoctonia solani [1]; [10]): 4
- Root evaluation (1-4) (Rhizoctonia solani [1]; [8]): 4
- Root evaluation (1-4) (Rhizoctonia solani [1]; [9]): 4
- Sound plants in % (Damping-off Fungi): 100%
- diameter of the colonies, Aspergillus niger (Aspergillus niger): 0 mm
- diameter of the colonies, Stemphylium ilicis (Stemphylium ilicis): 0 mm
- minimal effective concentration (Pythium ultimum [2]): 40 µg/mL
- LD50 [5]: 717 mg/kg

Structure (SMILES): CS(=O)(=O)c1nnc(C(F)(F)Cl)s1 [Compound 54, 2-chlorodifluoromethyl-5-methylsulfonyl-1,3,4-thiadiazole]
- minimal effective concentration (Rhizoctonia solani [6]): 20 µg/mL
- minimal effective concentration (Pythium ultimum [2]): 10 µg/mL

Structure (SMILES): C[S+]([O-])c1nnc(C(F)(F)Cl)s1 (centres unmarked) [Compound 55, 2-chlorodifluoromethyl-5-methylsulfinyl-1,3,4-thiadiazole]
- minimal effective concentration (Rhizoctonia solani [6]): 10 µg/mL
- minimal effective concentration (Pythium ultimum [2]): 10 µg/mL

Structure (SMILES): S=C([S-])NCCNC(=S)[S-].[Zn+2] [Zinc ethylene-bis-dithiocarbamate, reference compound]
- diameter of the colonies, Aspergillus niger (Aspergillus niger): 78 mm
- diameter of the colonies, Stemphylium ilicis (Stemphylium ilicis): 55 mm
- diameter of the colonies, Helminthosporium sativum (Helminthosporium sativum): 50 mm
- diameter of the colonies, Colletotrichum gloeosporioides [7]: 81 mm
- Root evaluation (1-4) (Pythium ultimum [3]; [19]): 1
- Number of sound peas after 3 wks. (Pythium ultimum [3]; [19]): 14
- diameter of the colonies, Botrytis cinerea (Botrytis cinerea): 36 mm
